Source: PMC7569882, “A Probeless Capacitive Biosensor for Direct Detection of Amyloid Beta 1-42 in Human Serum Based on an Interdigitated Chain-Shaped Electrode” (Micromachines, 2020)

B1: CRP: C-reactive protein, interferent in selectivity test (protein, UniProt P02741 19-224, looked up)
C-reactive protein: QTDMSRKAFVFPKESDTSYVSLKAPLTKPLKAFTVCLHFYTELSSTRGYSIFSYATKRQDNEILIFWSKDIGYSFTVGGSEILFEVPEVTVAPVHICTSWESASGIVEFWVDGKPRVRKSLKKGYTVGAEASIILGQEQDSFGGNFEGSQSLVGDIGNVNMWDFVLSPDEINTIYLGGPFSPNVLNWRALKYEVQGEVFTKPQLWP

Experiments:
[1] = target: aβ 1-42 peptide; settings: Fluorescent; ref [43]; cited from earlier work
From the text: Table 2 Dissociation constants Kd of the interaction between aβ 1-42 peptide and various binding partners. | column: Kd (nM)

[2] = tested on: anti-aβ/SAM/ICE biosensor (anti-aβ antibody MOAB-2); experiment: Selectivity of biosensor: change in capacitance ΔC with different analytes; type: binding; settings: 1 Hz, in HS; TNF-α 0.5 ng mL^−1, insulin 10^3 ng mL^−1, CRP 10^5 ng mL^−1; n = 3
Experimental: Electrical impedance spectroscopy (EIS) (EC-Lab, Sp-200, Bio-Logic Science Instruments, Seyssinet-Pariset, France) was used for the recording of impedance and capacitance of the biosensor in PBS (pH 7.4). The EIS output signal is measured by applying an input voltage of 10 mV in a frequency range from 100 mHz–100 Hz, to the working and reference electrode. To explore the clinical application, the capacitive anti-aβ/SAM/ICE biosensor was employed for the direct detection of aβ 1-42 peptide in HS. Firstly, the pure HS was diluted in 1× PBS buffer at the ratio (1:1000), to avoid matrix effects in the measurement. Next, 1 μg mL^−1 of aβ 1-42 in pure HS was made, and then differential concentrations of aβ from 10^−3 to 10^3 ng mL^−1 were diluted using HS (1:1000). Various concentrations of aβ (10^−3–10^3 ng mL^−1) were incubated in the HS (1:1000) with the biosensor for 20 min, and the capacitance was measured. To verify the selectivity of the anti-aβ/SAM/ICE biosensor, the effects of tumor necrosis factor-alpha (TNF-α, 0.5 ng mL^−1), insulin (10^3 ng mL^−1), and C-reactive protein (CRP, 10^5 ng mL^−1) in HS were characterized using the change in capacitance ΔC value at 1 Hz frequency (Figure 7a). […] Moreover, the fabricated aβ/SAM/ICE biosensors were kept in the refrigerator at 4 °C for storage. Then, the capacitance of the biosensor at 1 Hz was recorded in PBS at 24 °C of room temperature, on the 1st, 2nd, 3rd, 7th, and 14th day after taking it out to check the stability of the biosensor, as shown in Figure 7b.

Molecule | Kd [1] [nM] | interference with aβ detection [2] | ΔC response (change in capacitance) [2]
CN(C)c1ccc(/C=C/C2=CC(/C=C/c3ccc(N(C)C)cc3)=[O+][B-](F)(F)O2)cc1 [CRANAD-2, (T-4)-((1E,6E)-1,7-bis(4-(dimethylamino)phenyl)-1,6-heptadiene-3,5-dionato-kO^3,kO^5)difluoro-boron] | 38.7 | – | –
CN(C)c1ccc(/C=C/C=C/C=C(C#N)C#N)cc1 [DANIR-2c] | 26.9 | – | –
N#CC(C#N)=Cc1ccc(-c2ccc(-c3ccc(O)cc3)s2)s1 [NIAD-4, {(50-(p-Hydroxyphenyl)-2,20-bithienyl-5-yl)-methylidene}-propanedinitrile] | 10 | – | –
TNF-α | – | no significant interference | did not change much compared to the ΔC response for aβ
insulin: insulin, interferent in selectivity test | – | no significant interference | did not change much compared to the ΔC response for aβ
B1 | – | no significant interference | did not change much compared to the ΔC response for aβ
